Results as given in article PMC6273342, “Cytotoxic Alkaloids from the Stem of Xylopia laevigata” (Molecules, 2016).
Where two headings read alike, the source gives them in different places.

Legend:
[1] = system: HepG2 (human hepatocellular carcinoma); test: Alamar Blue cytotoxicity assay, HepG2; assay type: cell-based; conditions: 72 h incubation
Excerpt: (§1) Camargo, São Paulo, Brazil.

[2] = system: peripheral blood mononuclear cells (PBMCs); test: Alamar Blue cytotoxicity assay, non-tumor PBMCs; assay type: cell-based; conditions: Homo sapiens, PBMC, 72 h incubation, ConA-stimulated PBMCs
Experimental: Heparinized blood was collected from 20- to 35-year-old, healthy non-smokers who had not taken any drugs for at least 15 days prior to sampling, and the peripheral blood mononuclear cells (PBMCs) were isolated using a Ficoll density gradient in a Ficoll-Paque Plus (GE Healthcare Bio-Sciences AB, Uppsala, Sweden). PBMCs were washed and resuspended at a concentration of 0.3 × 10^6 cells/mL in RPMI 1640 medium with 20% fetal bovine serum, 2 mM L-glutamine and 50 μg/mL gentamycin at 37 °C with 5% CO2. Concanavalin A (ConA, Sigma-Aldrich Co.) was used as a mitogen to trigger cell division in T-lymphocytes. ConA (10 μg/mL) was added at the beginning of culture, and the cells were treated with the test compounds after 24 h. Cell viability was examined using a trypan blue exclusion assay for all experiments. Over 90% of the cells were viable at the beginning of the culture. The Research Ethics Committee of the Oswaldo Cruz Foundation (Salvador, Bahia, Brazil) approved the experimental protocol (#031019/2013). All participants signed a written informed consent to participate in the study.

[3] = system: HL-60 (human promyelocytic leukemia); test: Alamar Blue cytotoxicity assay, HL-60; assay type: cell-based; conditions: for IC50: Homo sapiens, HL-60, Alamar Blue, 72 h incubation, read-out: IC50 HL60
Experimental: (§3) B16-F10, HepG2, K562 and HL-60 tumor cell lines were kindly donated by Hospital A.C. […] Cells were maintained in RPMI 1640 medium (Gibco-BRL, Gaithersburg, MD, USA) with 10% fetal bovine serum (Cultilab, Campinas, Brazil), 2 mM L-glutamine (Vetec Química Fina, Duque de Caxias, Brazil) and 50 μg/mL gentamycin (Novafarma, Anápolis, Brazil). Adherent cells were collected by treatment with 0.25% trypsin-EDTA solution (Gibco-BRL). All cell lines were cultured in flasks at 37 °C in 5% CO2 and sub-cultured every 3–4 days to maintain exponential growth. All cell lines were tested for mycoplasma using a Mycoplasma Stain Kit (Sigma-Aldrich, St. Louis, MO, USA) to confirm that the cells were free from contamination.
(§4) Cell viability was quantified using the Alamar Blue assay, according to Ahmed et al. [23]. Cells were placed in 96-well plates for all experiments (0.7 × 10^5 cells/mL for adherent cells or 0.3 × 10^6 cells/mL for suspended cells in 100 μL of medium). After 24 h, the alkaloids (in a range of eight different concentrations varying from 0.19 to 25 μg/mL) were dissolved in dimethyl sulfoxide (DMSO, Sigma-Aldrich Co.), and the solution was added to each well and incubated for 72 h. […] Negative controls received the vehicle that was used for diluting the alkaloids (0.5% DMSO). Four (for cell lines) or 24 h (for PBMCs) before the end of incubation, 20 μL of a stock solution (0.312 mg/mL) of the Alamar Blue (resazurin, Sigma-Aldrich Co.) was added to each well. The absorbance at 570 nm and 600 nm was measured using a SpectraMax 190 Microplate Reader (Molecular Devices, Sunnyvale, CA, USA), and the drug effect was quantified as the percentage of control absorbance.

[4] = system: tumor cell lines B16-F10, HepG2, K562 and HL-60; test: Alamar Blue cytotoxicity assay, summary over the tumor cell lines tested; conditions: 72 h, read-out: IC50 in at least one of the tumor cell lines tested
Experimental: as §3, §4

B16-F10 (mouse melanoma) = test: Alamar Blue cytotoxicity assay, B16-F10; assay type: cell-based; conditions: 72 h incubation
Excerpt: as §1

[5] = system: K562 (human chronic myelocytic leukemia); test: Alamar Blue cytotoxicity assay, K562; assay type: cell-based; conditions: 72 h incubation
Excerpt: as §1

HepG2 cells [6] = test: Internucleosomal DNA fragmentation and cell cycle distribution (flow cytometry, propidium iodide), HepG2; assay type: cell-based, human; conditions: HepG2, 24 h, 1 µg/mL
Experimental: (§2) The following set of experiments was performed to investigate the mechanisms involved in the cytotoxic action of the alkaloids lanuginosine and (+)-xylopine. In all experiments, 2 mL of a HepG2 cell solution (0.7 × 10^5 cells/mL) was placed in 24-well plates and incubated overnight to allow the cells to adhere to the plate surface. The cells were then treated for 24 h with the alkaloids lanuginosine (10 and 20 μg/mL) and (+)-xylopine (5 and 10 μg/mL). The negative control was treated with the vehicle (0.2% DMSO) used for diluting the alkaloids. […] Cell viability was assessed for all experiments using a Trypan Blue exclusion assay.
Cells were harvested in a lysis solution containing 0.1% triton X-100 (Sigma Chemical Co., St. Louis, MO, USA), 2 µg/mL propidium iodide (Sigma Chemical Co.), 0.1% sodium citrate and 100 µg/mL RNAse (Sigma Chemical Co.). Cell fluorescence was determined by flow cytometry on a BD LSRFortessa cytometer using BD FACSDiva Software (BD Biosciences) and Flowjo Software 10. Ten thousand events were evaluated per experiment and cellular debris was omitted from the analysis.

HepG2 cells [7] = test: Annexin assay (phosphatidylserine externalization, flow cytometry), HepG2; assay type: cell-based, human; conditions: HepG2, 24 h
Experimental: as §2
Phosphatidylserine externalization was analyzed by flow cytometry. A FITC annexin V apoptosis detection kit (BD Biosciences, San Jose, CA, USA) was used to determine cell viability (viable, early apoptotic, late apoptotic and necrotic cells). Cells were washed twice with saline and then resuspended in 100 μL of binding buffer with 5 μL of propidium iodide and 5 μL of FITC annexin V. The cells were gently mixed on a vortexer and incubated for 15 min at room temperature (20–25 °C) in the dark. Afterwards, 400 μL of binding buffer was added to each tube and the cells were analyzed by flow cytometry on a BD LSRFortessa cytometer using BD FACSDiva Software (BD Biosciences) and Flowjo Software 10 (Flowjo LCC, Ashland, OR, USA). Ten thousand events were evaluated per experiment and cellular debris was omitted from the analysis.

[8] = Alamar Blue cytotoxicity assay, summary over the tumor cell lines tested; conditions: mouse (B16-F10); human (HepG2, K562, HL-60)
Experimental: as §3, §4

HepG2 cells [9] = test: Trypan Blue dye exclusion, HepG2; assay type: cell-based, human; conditions: HepG2, 24 h, lanuginosine 10 and 20 μg/mL, (+)-xylopine 5 and 10 μg/mL
Experimental: as §2

HepG2 cells [10] = test: Acridine Orange/ethidium bromide staining, fluorescence microscopy, HepG2; assay type: cell-based, human; conditions: HepG2, 24 h, p < 0.05
Experimental: as §2
Cells were pelleted and resuspended in saline (25 μL). Then, 1 μL of aqueous solution of AO/EB (100 μg/mL, Sigma-Aldrich Co.) was added, and the cell viability changes were observed under a fluorescence microscope (Olympus BX41). In this assay, AO permeates all cells and makes the nuclei appear green. EB is only taken up by cells when the cytoplasmic membrane integrity is lost and stains the nucleus red. EB also dominates over AO. Thus, live cells have a normal green nucleus; early apoptotic cells have a bright green nucleus with condensed or fragmented chromatin; late apoptotic cells display condensed and fragmented orange chromatin; cells that have died from direct necrosis have a structurally normal orange nucleus. Three hundred cells were counted per sample and classified as viable, apoptotic or necrotic.

HepG2 cells [11] = test: Morphological analysis with May-Grünwald-Giemsa staining, HepG2; assay type: cell-based, human; conditions: HepG2, 24 h; lanuginosine 10 and 20 μg/mL, (+)-xylopine 5 and 10 μg/mL
Experimental: as §2
To evaluate alterations in morphology, cells were cultured under a coverslip, fixed with methanol for 30 s and stained with May-Grünwald-Giemsa stain. Morphological changes were examined by light microscopy (Olympus BX41, Tokyo, Japan) using Image-Pro software (Media Cybernetics, Rockville, MD, USA).

| SMILES | IC50 [1] [µg/mL] | IC50 [2] [µg/mL] | IC50 [3] [µg/mL] | IC50 ([3]; value in brackets) [µM] | IC50 [4] [µg/mL] | IC50 (B16-F10 (mouse melanoma)) [µg/mL] | IC50 (B16-F10 (mouse melanoma); value in brackets) [µM] | IC50 [5] [µg/mL] | IC50 ([5]; value in brackets) [µM] | IC50 ([1]; value in brackets) [µM] | IC50 at 72 h [8] [µg/mL] | also measured |
| --- | --- | --- | --- | --- | --- | --- | --- | --- | --- | --- | --- | --- |
| COc1cc2c(cc1OC)-c1c(OC)c(OC)c(OC)c3c1C(C2)NCC3 (single isomer, unassigned; (+)) [(+)-Norpurpureine, (+)-norpurpureine] | > 25 | 17.9 | 10.1 | 27.2 | < 20 | 21.1 | 56.6 | 16.7 | 44.9 | – | – | IC50 ([2]; value in brackets): 48.2 µM |
| COc1cccc2c1C(=O)c1c(O)c3c(c(O)c1C2=O)C[C@@](O)(C(=O)CO)C[C@@H]3O[C@H]1C[C@H](N)[C@H](O)[C@H](C)O1 [Doxorubicin, doxorubicin, reference compound] | 0.08 | 2.47 | 0.09 | – | – | 0.08 | 0.15 | 0.15 | 0.28 | 0.15 | – | Cell Cycle Phases (%) S (HepG2 cells [6]; NC 16.11 ± 1.89): 12.00 ± 1.43 %; Cell Cycle Phases (%) G2/M (HepG2 cells [6]; NC 19.93 ± 6.12): 61.94 ± 5.52 %; IC50 ([2]; value in brackets): 4.54 µM; apoptotic characteristics in the cells (HepG2 cells [7]; doxorubicin 1 μg/mL, positive control): induced apoptotic characteristics |
| COc1ccc(CC2c3cc(O)c(OC)cc3CCN2C)cc1O (single isomer, unassigned; (+)) [(+)-Reticuline, (+)-reticuline] | 15.3 | > 25 | 23.8 | 72.1 | < 20 | > 25 | – | > 25 | – | 46.5 | – | – |
| COc1cc2c(cc1OC)-c1c(OC)c(OC)cc3ccnc(c13)C2=O [Oxoglaucine, oxoglaucine] | > 25 | 10.2 | 5.9 | 16.8 | < 20 | 19.1 | 54.4 | 12.5 | 35.5 | – | – | IC50 ([2]; value in brackets): 29.1 µM |
| COc1cc2c(cc1OC)CN1CCc3cc(OC)c(OC)cc3[C@@H]1C2 [(−)-Xylopinine, (−)-xylopinine] | > 25 | > 25 | > 25 | – | – | > 25 | – | > 25 | – | – | > 25 | – |
| COc1cc(O)c2c(c1)C[C@@H]1NCCc3cc4c(c-2c31)OCO4 [(+)-Calycinine, (+)-calycinine] | > 25 | > 25 | 18.6 | 59.6 | < 20 | 22.2 | 71 | > 25 | – | – | – | – |
| COc1cc2c(cc1O)CCN1Cc3c(ccc(O)c3OC)CC21 (single isomer, unassigned; (+)) [(+)-Discretamine, (+)-discretamine] | 14 | > 25 | 10.1 | 30.8 | < 20 | 18.8 | 57.3 | 10.6 | 32.4 | 42.8 | – | – |
| COc1cc2c(cc1O)CC1c3cc(OC)c(OC)cc3CCN1C2 (single isomer, unassigned; (-)) [(−)-Corytenchine, (−)-corytenchine] | > 25 | > 25 | > 25 | – | – | > 25 | – | > 25 | – | – | > 25 | – |
| COc1cc2c(cc1O)CC1c3c(cc(OC)c(OC)c3-2)CCN1C (single isomer, unassigned; (+)) [(+)-N-Methyllaurotetanine, (+)-N-methyllaurotetanine] | > 25 | > 25 | > 25 | – | – | > 25 | – | > 25 | – | – | > 25 | – |
| COC1=C[C@]23CCN(C)[C@H](Cc4cc(OC)c(O)cc42)C3=CC1=O [(+)-Flavinantine, (+)-flavinantine] | > 25 | > 25 | > 25 | – | – | > 25 | – | > 25 | – | – | > 25 | – |
| CN1CCc2cc3c(c4c2[C@H]1Cc1ccccc1-4)OCO3 [(−)-Roemerine, (−)-roemerine] | > 25 | > 25 | > 25 | – | – | > 25 | – | > 25 | – | – | > 25 | – |
| COc1ccc2c(c1)C(=O)c1nccc3cc4c(c-2c13)OCO4 [Lanuginosine, lanuginosine] | 3.89 | 24.5 | 7.81 | 25.5 | < 4 | 8.46 | 27.6 | 6.61 | 21.6 | 12.7 | – | number of non-viable cells (HepG2 cells [9]): without increasing the number of non-viable cells; number of viable cells (HepG2 cells [9]; p < 0.05): reduce the number of viable cells; IC50 ([2]; value in brackets): 80.1 µM; selectivity index (SI) ([3]; SI = IC50[PBMC]/IC50[HL-60]): 3.1; percentage of necrotic cells (AO/EB) (HepG2 cells [10]; at the higher concentration): significantly increased the percentage of necrotic cells; number of apoptotic cells (AO/EB) (HepG2 cells [10]; lanuginosine 10 and 20 μg/mL, (+)-xylopine 5 and 10 μg/mL): increased number of apoptotic cells; cell morphology (HepG2 cells [11]): morphology consistent with apoptosis, including chromatin condensation and fragmentation of the nuclei; phosphatidylserine exposure (HepG2 cells [7]; p < 0.05, without affecting the cell membrane integrity): significant increase in phosphatidylserine exposure |
| COc1cc2c(cc1OC)-c1c(OC)c(OC)cc3c1[C@H](C2)N(C)CC3 [(+)-Glaucine, (+)-glaucine] | > 25 | > 25 | > 25 | – | – | > 25 | – | > 25 | – | – | > 25 | – |
| c1ccc2c(c1)C[C@H]1NCCc3cc4c(c-2c31)OCO4 [(+)-Anonaine, (+)-anonaine] | 14 | > 25 | 10.1 | 37.9 | < 20 | 18.8 | 70.7 | 10.6 | 39.9 | 52.8 | – | – |
| COc1cc2c(cc1O)C[C@@H]1NCCc3cc(OC)c(OC)c-2c31 [(+)-Laurotetanine, (+)-laurotetanine] | > 25 | > 25 | > 25 | – | – | > 25 | – | > 25 | – | – | > 25 | – |
| COc1cc2c(cc1O)CCN1Cc3cc(OC)c(OC)cc3C[C@@H]21 [(+)-Discretine, (+)-discretine] | 7.89 | > 25 | 13 | 37.9 | < 20 | 16.1 | 47.2 | 14.8 | 43.4 | 23.1 | – | – |
